Results taken from ChEMBL document CHEMBL1201862, “PubChem BioAssay data set” (2004).
Activity calls are given as the source filed them.

Tests used:
[1] = Luminescence Cell-Based Dose Confirmation to Identify Activators of 5'UTR Stem-Loop Driven Alpha-Synuclein mRNA Translation in H4 Neuroglioblastoma Cells. [Related pubchem assays: 1829 (Project Summary), 1814 (Primary HTS)]; assay type: functional
H4 = experiment: Luminescence Cell-Based Dose Response HTS to Identify Activators of 5'UTR Stem-Loop Driven Prion Protein mRNA Translation in H4 Neuroglioblastoma Cells. [Related pubchem assays: 1829 (Project Summary), 1814 (Primary HTS)]; assay type: functional; settings: Homo sapiens
[2] = Luminescence Cell-Based Dose Confirmation HTS to Identify Activators of 5'UTR Stem-Loop Driven Alpha-Synuclein mRNA Translation in H4 Neuroglioblastoma Cells. [Related pubchem assays: 1829 (Project Summary), 1814 (Primary HTS)]; assay type: functional
[3] = Luminescence Cell-Based Dose Response HTS to Identify Activators of Luciferase Translation or Activity in H4 […] Cells. [Related pubchem assays: 1829 (Project Summary), 1814 (Primary HTS)]; assay type: functional
[4] = Luminescence Cell-Based Dose Response to Identify Activators of Luciferase Translation or Activity in H4-C Neuroglioblastoma Cells. [Related pubchem assays: 1829 (Project Summary), 1814 (Primary HTS)]; assay type: functional
[5] = Luminescence Cell-Based Dose Response to Identify Activators of 5'UTR Stem-Loop Driven Prion Protein mRNA Translation in H4-C Neuroglioblastoma Cells. [Related pubchem assays: 1829 (Project Summary), 1814 (Primary HTS)]; assay type: functional
Procathepsin L = Procathepsin L (Homo sapiens, UniProt P07711); experiment: cathepsin L inhibitors, dose response, counter-screen for M1/M17 aminopeptidase inhibitor project, biochemical, QFRET, 1536-well (AID 2214)
Leucine aminopeptidase = molecular target: T1, Leucine aminopeptidase (Plasmodium falciparum 3D7, UniProt Q8IL11); experiment: P. falciparum M17LAP inhibitors, primary screen, biochemical, fluorogenic H-Leu-NHMec substrate, 1536-well (AID 1619); assay type: functional
T1 sequence (Q8IL11 whole entry): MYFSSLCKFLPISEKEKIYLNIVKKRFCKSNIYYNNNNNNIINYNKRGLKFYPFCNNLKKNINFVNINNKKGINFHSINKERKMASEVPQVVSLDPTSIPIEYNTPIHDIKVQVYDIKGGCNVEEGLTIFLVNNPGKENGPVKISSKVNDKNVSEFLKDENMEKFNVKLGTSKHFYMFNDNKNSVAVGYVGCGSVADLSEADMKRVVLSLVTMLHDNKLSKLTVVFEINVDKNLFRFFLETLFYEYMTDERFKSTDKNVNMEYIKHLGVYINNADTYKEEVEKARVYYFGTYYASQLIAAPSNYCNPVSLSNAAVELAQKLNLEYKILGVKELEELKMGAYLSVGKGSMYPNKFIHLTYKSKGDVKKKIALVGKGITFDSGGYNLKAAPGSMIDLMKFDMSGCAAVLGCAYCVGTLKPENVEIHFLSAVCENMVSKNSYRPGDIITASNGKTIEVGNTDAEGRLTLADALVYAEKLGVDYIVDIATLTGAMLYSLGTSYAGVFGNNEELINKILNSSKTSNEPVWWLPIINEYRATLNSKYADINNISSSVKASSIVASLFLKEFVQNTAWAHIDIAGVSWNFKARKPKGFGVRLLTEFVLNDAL

Aspartyl aminopeptidase = Aspartyl aminopeptidase (Plasmodium falciparum 3D7, UniProt Q8I2J3); experiment: Counterscreen for inhibitors of M1 and M17 aminopeptidases: QFRET-based biochemical high throughput dose response assay for inhibitors of the Plasmodium falciparum M18 Aspartyl Aminopeptidase (PFM18AAP). [Related PubChem assays: 1619 (Screening assay (M17LAP inhibitors).), 1445 (Screening assay (M1AAP inhibitors).)]
[6] = molecular target: Induced myeloid leukemia cell differentiation protein Mcl-1 (Homo sapiens, UniProt Q07820); assay type: functional
Large T antigen = Large T antigen (Simian virus 40, UniProt P03070); assay type: functional, Betapolyomavirus macacae;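 also: Confirmatory-stage PubChem screen for compounds that inhibit SV40 T antigen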
[7] = molecular target: T2, Long-chain-fatty-acid--AMP ligase FadD28 (Mycobacterium tuberculosis, UniProt P9WQ59); experiment: Fluorescence polarization aasay to screen for inhibitors that compete for the binding of FadD28 to a bisubstrate Measured in Biochemical System Using Plate Reader - 2147-01_Inhibitor_Dose_CherryPick_Activity.; assay type: functional, Mycobacterium tuberculosis H37Rv
T2 sequence (P9WQ59 whole entry): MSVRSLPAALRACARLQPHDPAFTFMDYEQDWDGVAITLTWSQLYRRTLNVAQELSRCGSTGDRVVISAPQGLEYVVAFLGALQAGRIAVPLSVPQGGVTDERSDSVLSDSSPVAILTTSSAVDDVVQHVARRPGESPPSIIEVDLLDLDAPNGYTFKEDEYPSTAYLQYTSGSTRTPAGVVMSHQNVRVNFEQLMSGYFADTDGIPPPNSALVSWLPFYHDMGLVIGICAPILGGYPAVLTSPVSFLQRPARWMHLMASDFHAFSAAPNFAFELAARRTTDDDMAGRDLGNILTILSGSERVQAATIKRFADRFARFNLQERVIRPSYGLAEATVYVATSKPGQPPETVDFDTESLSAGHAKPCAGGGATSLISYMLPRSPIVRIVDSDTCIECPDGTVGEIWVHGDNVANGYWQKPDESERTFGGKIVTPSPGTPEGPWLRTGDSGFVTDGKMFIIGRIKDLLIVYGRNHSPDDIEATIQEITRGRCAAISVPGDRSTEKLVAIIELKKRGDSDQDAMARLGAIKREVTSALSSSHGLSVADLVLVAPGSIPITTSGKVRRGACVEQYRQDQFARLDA

Vero [8] = experiment: cells; assay type: functional; settings: Chlorocebus sabaeus
Nonstructural protein 1 = Nonstructural protein 1 (Influenza A virus, UniProt Q194T2); assay type: functional, Influenza A virus (A/California/07/2009(H1N1))
[9] = molecular target: Bifunctional protein GlmU (Mycobacterium tuberculosis, UniProt P9WMN3); experiment: Inhibitors of Mycobacterial Glucosamine-1-phosphate acetyl transferase (GlmU). Secondary screen.; set-up: species or system Mycobacterium tuberculosis H37Rv
Vero [10] = experiment: Vero cell cytotoxicity, cytotoxicity control for flavivirus capping enzyme inhibitors (AID 588742); assay type: functional; settings: Chlorocebus sabaeus
Aminopeptidase N = molecular target: T3, Aminopeptidase N (Plasmodium falciparum FcB1/Columbia, UniProt O96935); experiment: P. falciparum M1AAP inhibitors, biochemical, fluorogenic H-Leu-NHMec substrate, 1536-well (AID 1445); set-up: species or system Plasmodium falciparum 3D7, 3D7
T3 sequence (O96935 whole entry): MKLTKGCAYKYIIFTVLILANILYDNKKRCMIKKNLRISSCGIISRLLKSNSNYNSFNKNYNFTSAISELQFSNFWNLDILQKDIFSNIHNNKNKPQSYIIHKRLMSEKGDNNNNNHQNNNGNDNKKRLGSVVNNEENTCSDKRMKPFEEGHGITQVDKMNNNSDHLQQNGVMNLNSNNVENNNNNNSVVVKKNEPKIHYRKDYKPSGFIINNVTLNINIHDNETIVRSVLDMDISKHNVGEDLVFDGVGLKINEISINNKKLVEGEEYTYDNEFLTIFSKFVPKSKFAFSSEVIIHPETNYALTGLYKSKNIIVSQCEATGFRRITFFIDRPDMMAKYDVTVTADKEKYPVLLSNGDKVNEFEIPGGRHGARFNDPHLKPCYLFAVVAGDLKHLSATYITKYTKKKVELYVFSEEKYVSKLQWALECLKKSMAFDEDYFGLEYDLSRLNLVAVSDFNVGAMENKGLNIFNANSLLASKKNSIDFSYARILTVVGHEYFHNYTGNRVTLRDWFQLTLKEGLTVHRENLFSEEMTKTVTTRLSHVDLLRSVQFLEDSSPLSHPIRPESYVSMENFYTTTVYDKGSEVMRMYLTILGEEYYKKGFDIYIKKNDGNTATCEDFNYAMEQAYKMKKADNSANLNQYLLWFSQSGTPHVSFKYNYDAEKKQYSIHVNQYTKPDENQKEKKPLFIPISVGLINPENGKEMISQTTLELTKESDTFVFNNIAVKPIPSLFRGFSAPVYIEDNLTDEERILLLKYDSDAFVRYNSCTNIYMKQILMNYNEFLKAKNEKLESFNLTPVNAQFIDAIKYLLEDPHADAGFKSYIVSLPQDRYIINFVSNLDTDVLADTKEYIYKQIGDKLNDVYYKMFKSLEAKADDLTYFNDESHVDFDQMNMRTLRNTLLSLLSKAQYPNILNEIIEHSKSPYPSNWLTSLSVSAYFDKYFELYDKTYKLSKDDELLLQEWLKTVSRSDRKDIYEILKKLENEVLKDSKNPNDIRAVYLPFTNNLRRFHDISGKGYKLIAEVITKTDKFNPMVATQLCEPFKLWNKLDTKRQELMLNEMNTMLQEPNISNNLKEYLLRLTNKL

[11] = molecular target: T4, High affinity choline transporter 1 (Homo sapiens, UniProt Q9GZV3); experiment: CHT inhibitors, dose response, cell-based, 5-point CRC, membrane potential dye (AID 504840); assay type: functional
T4 sequence (Q9GZV3 whole entry): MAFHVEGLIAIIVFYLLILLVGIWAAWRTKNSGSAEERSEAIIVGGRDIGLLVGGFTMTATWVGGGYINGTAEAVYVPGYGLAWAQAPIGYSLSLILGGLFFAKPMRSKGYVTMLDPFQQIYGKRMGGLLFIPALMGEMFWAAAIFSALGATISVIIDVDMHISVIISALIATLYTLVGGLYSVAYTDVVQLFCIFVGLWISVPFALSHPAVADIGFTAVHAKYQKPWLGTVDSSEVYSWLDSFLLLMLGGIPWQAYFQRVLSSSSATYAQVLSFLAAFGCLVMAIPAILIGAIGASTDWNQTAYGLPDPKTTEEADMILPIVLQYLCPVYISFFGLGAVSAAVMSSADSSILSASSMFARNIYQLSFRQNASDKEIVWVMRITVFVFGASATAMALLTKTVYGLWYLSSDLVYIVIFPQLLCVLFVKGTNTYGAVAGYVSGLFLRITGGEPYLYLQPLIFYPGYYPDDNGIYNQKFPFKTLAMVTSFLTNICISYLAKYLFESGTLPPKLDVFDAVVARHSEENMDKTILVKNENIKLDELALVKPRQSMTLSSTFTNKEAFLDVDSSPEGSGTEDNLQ

Genome polyprotein = Genome polyprotein (dengue virus type 2, UniProt P29990); experiment: Dengue-2 NS5 methyltransferase inhibitors, primary screen, biochemical, confirmation dose response (AID 588689); assay type: functional
[12] = molecular target: Ubiquitin carboxyl-terminal hydrolase BAP1 (Homo sapiens, UniProt Q92560); experiment: BAP1 deubiquitinase inhibitors, dose response, biochemical (AID 714); assay type: functional
[13] = molecular target: Aryl hydrocarbon receptor (Homo sapiens, UniProt P35869); experiment: Luminescence-based cell-based high throughput dose response assay for activators of the Aryl Hydrocarbon Receptor (AHR). [Related pubchem assays: 2796 (Primary screen (AHR activators in singlicate)), 2845 (Confirmation screen (AHR activators in triplicate)), 434939 (Counterscreen (PXR activators in triplicate)), 2804 (Summary (AHR activators))]; assay type: ADME
[14] = molecular target: E3 ubiquitin-protein ligase Mdm2 (Homo sapiens, UniProt Q00987); experiment: enhancers of MDM2-luciferase reporter signal, concentration-effect titration, project on inhibitors of MDM2 ubiquitin ligase, cellular assay, luminescent readout, 384-well plate format (AID 1394); assay type: functional;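 also: MDM2 E3 inhibitors raise luminescence so EC50 is for signal enhancement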
Estrogen receptor beta = Estrogen receptor beta (Homo sapiens, UniProt Q92731); experiment: ERβ–SRC-3 coactivator interaction inhibitors, confirmation, orthogonal assay, biochemical, ELISA, streptavidin-HRP readout (AID 1060)
Chain of Estrogen receptor beta (Q92731 whole entry): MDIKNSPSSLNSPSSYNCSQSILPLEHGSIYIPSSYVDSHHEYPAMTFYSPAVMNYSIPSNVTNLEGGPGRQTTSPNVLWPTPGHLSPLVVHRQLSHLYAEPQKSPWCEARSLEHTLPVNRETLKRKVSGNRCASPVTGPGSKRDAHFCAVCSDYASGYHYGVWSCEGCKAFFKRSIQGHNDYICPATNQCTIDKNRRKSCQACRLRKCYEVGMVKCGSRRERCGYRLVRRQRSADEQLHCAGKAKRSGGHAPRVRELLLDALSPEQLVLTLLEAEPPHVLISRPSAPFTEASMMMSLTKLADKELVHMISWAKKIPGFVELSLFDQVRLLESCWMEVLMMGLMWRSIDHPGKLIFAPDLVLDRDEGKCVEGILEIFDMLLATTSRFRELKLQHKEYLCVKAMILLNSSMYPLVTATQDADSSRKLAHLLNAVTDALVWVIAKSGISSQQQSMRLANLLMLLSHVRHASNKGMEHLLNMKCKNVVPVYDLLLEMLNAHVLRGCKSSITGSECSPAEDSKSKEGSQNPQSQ

Chain of Aryl hydrocarbon receptor (P35869 whole entry): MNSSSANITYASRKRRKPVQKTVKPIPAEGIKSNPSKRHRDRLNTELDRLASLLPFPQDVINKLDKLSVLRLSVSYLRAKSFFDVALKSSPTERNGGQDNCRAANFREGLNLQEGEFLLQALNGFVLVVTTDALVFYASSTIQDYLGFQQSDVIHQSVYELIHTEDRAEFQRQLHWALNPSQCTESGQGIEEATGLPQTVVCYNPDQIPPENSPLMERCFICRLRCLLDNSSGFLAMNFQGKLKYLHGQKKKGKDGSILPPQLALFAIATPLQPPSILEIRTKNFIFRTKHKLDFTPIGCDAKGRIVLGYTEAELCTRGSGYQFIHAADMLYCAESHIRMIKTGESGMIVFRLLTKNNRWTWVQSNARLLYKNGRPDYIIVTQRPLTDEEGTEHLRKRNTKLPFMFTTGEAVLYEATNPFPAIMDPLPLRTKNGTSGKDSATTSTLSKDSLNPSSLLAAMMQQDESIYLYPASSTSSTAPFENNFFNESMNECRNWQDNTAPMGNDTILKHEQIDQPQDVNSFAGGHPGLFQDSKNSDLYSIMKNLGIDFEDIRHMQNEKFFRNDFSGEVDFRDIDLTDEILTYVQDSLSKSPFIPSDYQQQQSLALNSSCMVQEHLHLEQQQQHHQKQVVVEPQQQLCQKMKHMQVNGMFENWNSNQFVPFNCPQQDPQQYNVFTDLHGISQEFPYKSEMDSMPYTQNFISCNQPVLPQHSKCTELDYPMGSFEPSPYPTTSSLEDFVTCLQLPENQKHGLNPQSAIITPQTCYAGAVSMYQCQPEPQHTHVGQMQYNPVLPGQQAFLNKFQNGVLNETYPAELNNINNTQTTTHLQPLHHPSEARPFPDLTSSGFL
Chain of Ubiquitin carboxyl-terminal hydrolase BAP1 (Q92560 whole entry): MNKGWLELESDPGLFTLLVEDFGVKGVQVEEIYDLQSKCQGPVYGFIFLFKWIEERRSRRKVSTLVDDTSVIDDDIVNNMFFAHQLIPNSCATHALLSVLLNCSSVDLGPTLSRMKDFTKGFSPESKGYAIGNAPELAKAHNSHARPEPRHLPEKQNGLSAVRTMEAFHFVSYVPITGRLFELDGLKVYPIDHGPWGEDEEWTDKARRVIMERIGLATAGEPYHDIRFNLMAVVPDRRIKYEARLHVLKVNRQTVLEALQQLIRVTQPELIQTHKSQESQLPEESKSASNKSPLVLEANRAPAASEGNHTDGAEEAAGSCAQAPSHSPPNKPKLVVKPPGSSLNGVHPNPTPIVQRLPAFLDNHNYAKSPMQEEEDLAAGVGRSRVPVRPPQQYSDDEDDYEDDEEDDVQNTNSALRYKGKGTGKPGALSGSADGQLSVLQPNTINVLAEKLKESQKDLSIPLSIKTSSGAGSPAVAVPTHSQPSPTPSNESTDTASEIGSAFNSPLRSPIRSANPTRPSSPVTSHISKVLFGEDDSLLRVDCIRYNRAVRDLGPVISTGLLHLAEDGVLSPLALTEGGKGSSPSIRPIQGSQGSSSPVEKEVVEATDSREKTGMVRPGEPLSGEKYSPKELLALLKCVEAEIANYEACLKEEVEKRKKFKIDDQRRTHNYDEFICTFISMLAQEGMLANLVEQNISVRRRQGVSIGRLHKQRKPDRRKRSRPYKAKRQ
Chain of E3 ubiquitin-protein ligase Mdm2 (Q00987 whole entry): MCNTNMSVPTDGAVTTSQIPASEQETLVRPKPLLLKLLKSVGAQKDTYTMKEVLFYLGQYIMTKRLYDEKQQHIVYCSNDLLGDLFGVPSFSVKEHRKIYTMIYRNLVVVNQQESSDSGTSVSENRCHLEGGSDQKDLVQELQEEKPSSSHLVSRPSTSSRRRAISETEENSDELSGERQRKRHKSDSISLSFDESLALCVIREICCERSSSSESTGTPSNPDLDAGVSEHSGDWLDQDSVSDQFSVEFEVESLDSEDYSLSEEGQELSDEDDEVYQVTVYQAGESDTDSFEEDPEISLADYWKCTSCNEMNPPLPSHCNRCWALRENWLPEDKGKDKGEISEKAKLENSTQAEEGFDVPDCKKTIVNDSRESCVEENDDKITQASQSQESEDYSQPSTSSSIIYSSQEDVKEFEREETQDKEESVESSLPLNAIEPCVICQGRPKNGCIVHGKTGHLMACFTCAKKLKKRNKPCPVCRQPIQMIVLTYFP
Chain of Procathepsin L (P07711 whole entry): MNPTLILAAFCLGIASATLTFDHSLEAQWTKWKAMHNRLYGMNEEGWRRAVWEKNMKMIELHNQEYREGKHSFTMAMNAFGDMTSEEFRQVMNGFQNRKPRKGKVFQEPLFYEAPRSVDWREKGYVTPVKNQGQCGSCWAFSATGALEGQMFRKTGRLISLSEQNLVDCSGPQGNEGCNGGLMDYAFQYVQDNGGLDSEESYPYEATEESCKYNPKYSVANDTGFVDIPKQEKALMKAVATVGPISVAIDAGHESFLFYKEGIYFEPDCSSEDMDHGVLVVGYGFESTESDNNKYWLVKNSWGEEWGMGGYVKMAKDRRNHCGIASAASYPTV
Chain of Bifunctional protein GlmU (P9WMN3 whole entry): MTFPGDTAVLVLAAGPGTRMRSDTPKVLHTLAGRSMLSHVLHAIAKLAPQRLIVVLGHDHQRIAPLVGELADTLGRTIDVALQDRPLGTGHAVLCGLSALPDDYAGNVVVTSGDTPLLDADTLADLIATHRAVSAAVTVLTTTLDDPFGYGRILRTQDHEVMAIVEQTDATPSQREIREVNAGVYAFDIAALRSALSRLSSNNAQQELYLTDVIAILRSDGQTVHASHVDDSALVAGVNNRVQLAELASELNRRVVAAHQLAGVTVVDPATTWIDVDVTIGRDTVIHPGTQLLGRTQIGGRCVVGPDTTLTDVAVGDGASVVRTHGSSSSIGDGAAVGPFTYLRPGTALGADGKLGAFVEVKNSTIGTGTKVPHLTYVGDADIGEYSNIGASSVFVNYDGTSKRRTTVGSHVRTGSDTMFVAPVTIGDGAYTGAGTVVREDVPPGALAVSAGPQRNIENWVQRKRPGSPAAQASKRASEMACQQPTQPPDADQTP
Chain of Genome polyprotein (P29990 2492-3391 limits assumed): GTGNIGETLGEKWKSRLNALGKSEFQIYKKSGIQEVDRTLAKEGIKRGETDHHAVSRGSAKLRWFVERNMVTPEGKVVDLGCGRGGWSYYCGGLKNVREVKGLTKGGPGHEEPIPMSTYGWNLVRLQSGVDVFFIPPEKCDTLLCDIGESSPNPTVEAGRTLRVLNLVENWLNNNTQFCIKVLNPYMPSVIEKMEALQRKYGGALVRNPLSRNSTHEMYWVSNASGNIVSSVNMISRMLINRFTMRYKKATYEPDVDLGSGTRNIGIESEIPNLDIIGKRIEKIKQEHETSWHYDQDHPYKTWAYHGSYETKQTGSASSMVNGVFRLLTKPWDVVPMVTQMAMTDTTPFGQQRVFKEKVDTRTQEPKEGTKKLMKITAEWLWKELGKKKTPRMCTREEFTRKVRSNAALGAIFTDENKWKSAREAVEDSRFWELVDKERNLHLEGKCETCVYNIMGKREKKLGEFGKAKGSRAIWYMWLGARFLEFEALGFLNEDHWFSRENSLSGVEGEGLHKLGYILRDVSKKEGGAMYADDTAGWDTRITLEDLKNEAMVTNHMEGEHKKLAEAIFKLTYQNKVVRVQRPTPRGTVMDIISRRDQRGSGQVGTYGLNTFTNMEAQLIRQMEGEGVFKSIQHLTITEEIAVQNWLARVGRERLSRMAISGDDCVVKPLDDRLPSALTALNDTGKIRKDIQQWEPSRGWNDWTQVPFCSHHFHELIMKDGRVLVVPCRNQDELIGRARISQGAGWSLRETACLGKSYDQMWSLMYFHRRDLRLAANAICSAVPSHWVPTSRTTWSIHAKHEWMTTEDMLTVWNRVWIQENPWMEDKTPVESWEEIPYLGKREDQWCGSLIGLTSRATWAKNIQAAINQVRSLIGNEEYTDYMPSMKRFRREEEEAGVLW
Chain of Nonstructural protein 1 (Q194T2 whole entry): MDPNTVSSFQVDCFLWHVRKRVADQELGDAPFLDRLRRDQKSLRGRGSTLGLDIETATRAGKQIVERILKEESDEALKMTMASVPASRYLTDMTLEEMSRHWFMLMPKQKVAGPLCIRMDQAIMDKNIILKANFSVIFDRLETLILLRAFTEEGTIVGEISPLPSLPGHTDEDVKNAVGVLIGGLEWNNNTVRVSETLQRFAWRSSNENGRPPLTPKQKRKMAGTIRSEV
Chain of Induced myeloid leukemia cell differentiation protein Mcl-1 (Q07820 whole entry): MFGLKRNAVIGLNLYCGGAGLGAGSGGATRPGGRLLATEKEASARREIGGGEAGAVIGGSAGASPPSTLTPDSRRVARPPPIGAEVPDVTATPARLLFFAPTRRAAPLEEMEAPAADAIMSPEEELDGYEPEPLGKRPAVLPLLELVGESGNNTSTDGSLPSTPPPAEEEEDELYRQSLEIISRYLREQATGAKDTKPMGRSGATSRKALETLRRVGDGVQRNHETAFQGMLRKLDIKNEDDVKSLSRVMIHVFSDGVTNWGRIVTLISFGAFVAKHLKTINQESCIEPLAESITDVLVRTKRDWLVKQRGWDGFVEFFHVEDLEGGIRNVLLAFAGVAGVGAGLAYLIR

Cc1oc2cc3c(C(=O)N4CCCCC4)c(C)oc3cc2c1C(=O)N1CCCCC1
EC50 [1]: 0.598 µM (active) | EC50 (H4): > 120 µM (not active) | EC50 [2]: < 0.1 µM (active) | EC50 [3]: 12.2 µM (active) | EC50 [4]: 0.573 µM (active) | EC50 [5]: > 12 µM (not active)

CC(C)c1ccc(NC(=O)C2CCCCC2C(=O)O)cc1 (stereo not given)
IC50 (Procathepsin L): > 59.6 µM (not active) | IC50 (Leucine aminopeptidase): 3.51 µM (active) | IC50 (Aspartyl aminopeptidase): > 73.5 µM (not active)

COc1cc(/C=C2/C(=O)c3cccc([N+](=O)[O-])c3C2=O)c(Br)cc1O
IC50 [6]: 1.39 µM (active) | IC50 (Large T antigen): 13.9 µM (active) | AC50 [7]: > 100 µM (inactive) | CC50 (Vero [8]): 16.4 µM (active) | IC50 (Nonstructural protein 1): 20.9 µM (active) | IC50 [9]: 60.9 µM (active) | CC50 (Vero [10]): 34 µM (active) | IC50 (Aminopeptidase N): 5.94 µM (active) | IC50 [11]: 9.13 µM (active) | IC50 (Genome polyprotein): 7.44 µM (active)

O=S(=O)(c1cccc(S(=O)(=O)N2CCC(n3nnc4ccccc43)CC2)c1)N1CCCCC1
IC50 [12]: 18.3 µM (active)

COc1ccc(Cl)cc1C(=O)Nc1ccc(N(C)C(C)=O)cc1
EC50 [13]: 2.81 µM (active)

COc1ccc(NC(=O)c2c(NC(=O)CNCc3ccco3)sc3c2CCC3)c(OC)c1
IC50 [12]: 35.8 µM (not active)

Cc1cc(C(=O)CSc2nc3ccccc3o2)c(C)n1CC1CCCO1 (stereo not given)
EC50 [1]: 0.21 µM (active) | EC50 (H4): < 0.1 µM (active) | EC50 [4]: 0.231 µM (active) | EC50 [5]: 0.323 µM (active)

Cc1cc(C)c(S(=O)(=O)c2ccccc2)c(OC(=O)c2cc(F)c(F)cc2Cl)n1
EC50 [14]: 186 µM (not active)

COCC(=O)N1CCc2ccc(NC(=O)c3ccc(C(F)(F)F)cc3)cc2C1
EC50 [13]: > 1.13 µM (active)

Fc1ccc(CSc2ncnc3c2oc2ccccc23)cc1
IC50 (Estrogen receptor beta): > 50 µM (not active)

O=C(Nc1ccc(F)cc1)c1ccccc1S(=O)(=O)c1ccccc1[N+](=O)[O-]
EC50 [14]: 0.53 µM (not active)
